Reference: patent US5808139A (Ligand Pharmaceuticals Incorporated, priority 1994, dated 1998)
pIC50: −log10 of the molar value.

Tests used:
[1] = tested on: endometrium of the uterus; experiment: Decidualization assay in pseudopregnant mice, oil-induced uterine weight gain; assay type: in vivo; settings: 0.1 mg
Protocol: A successful pregnancy requires not only the effective collision and fusion of egg and spermatozoon, but also the provision of a receptive and supportive uterus. The preparation of the endometrium of the uterus for implantation (i.e. decidualization) starts well before the blastocyst arrives in the uterus.
Psuedopregnant mice (i.e. mated with vasectomized males) were used to establish the assay system. […] At 16 hours of Day 4, a small volume of sesame oil (10 μl) was introduced to the lumen of the right uterine horn to serve as a decidual stimulus. The left horn was left undisturbed to serve as an internal control. Autopsies were performed on Day 7 to assess uterine wet weight gains in the stimulated versus non-stimulated uterine horns.
Each of these compounds was intraluminally administered in an appropriate dosage on Day 4 along with the sesame oil administration.

[2] = tested on: progesterone receptor (T47D cells); experiment: Antagonist assay in T47D (human breast cancer) cells (Tables 1 and 2); assay type: cell-based
[3] = tested on: glucocorticoid, mineralocorticoid, androgen, estrogen, and retinoic acid receptors; orphan receptors; experiment: Cross-reactivity with other known intracellular receptor classes; assay type: cell-based
Protocol: Compound SO-9 was also tested with orphan receptors (which are receptors whose natural ligand is unknown).
The 3R and 3S diastereomeric acetates of cyclocymopol monomethyl ether were also individually tested for cross reactivity with the other known intracellular receptor classes. […] No antagonist activity was detected with either compound.

Compound	Blocking of decidualization weight gain (in words) [1]	Net Uterine Weight Gain ([1]; intraluminal, autopsy Day 7, oil alone control 334.7 +/- 41.0) [mg]	Efficacy (% maximal response relative to RU-486), T47D cells ([2]; antagonist activity, relative to RU-486) [%]	pIC50 ([2]; concentration required to reduce the maximal response by 50%, read-out: Potency (IC50), T47D cells)	Cross-reactivity with other intracellular receptors [3]
CC#C[C@]1(O)CC[C@H]2[C@@H]3CCC4=CC(=O)CCC4=C3[C@@H](c3ccc(N(C)C)cc3)C[C@@]21C [RU-486, reference compound]	completely blocked this decidualization weight gain	9.53 ± 3.51	–	–	–
C=C1CC[C@@H](Br)C(C)(C)[C@@H]1Cc1cc(OC)c(Br)cc1O [SO-53, (3R)-cyclocymopol monomethyl ether]	–	–	85	6.41	not to cross-react with any of the other receptors
